The source of these data is patent US6541467B1, “Thrombin inhibitors having a lactam at P3” (Corvas International, Inc., priority 2000, dated 2003).

Type in all cases: biochemical
The target in assay [1] is T1, human α-thrombin (Homo sapiens, UniProt P00734).
T1 construct: Purified human α-thrombin; purchased Enzyme Research Laboratories, Inc
Description: Thrombin (fIIa) chromogenic enzyme assay. The settings on record: for IC50: 0 min. How it is done: For screening compounds using these assays, the compounds of the present invention are dissolved in buffer to give solutions containing concentrations such that assay concentrations range from 0 to 100 micromolar. In the assays for thrombin, plasmin, t-PA, aPC, chymotrypsin, and trypsin, a chromogenic synthetic substrate is added to a solution containing test compound and the enzyme of interest and the residual catalytic activity of that enzyme is determined spectrophometrically. The IC50 of a compound of the present invention is determined from the rate of substrate turnover caused by the specific enzyme being measured. IC50 is the concentration of test compound which gives 50% inhibition of the rate of substrate turnover. Likewise, the Ki of a compound of the present invention is determined from the rate of substrate turnover caused by the specific enzyme being measured at various […] concentrations. Example A provides exemplars of in vitro assays used to select the compounds of the present invention.
(§1) The ability of compounds of the present invention to act as a selective inhibitor of thrombin activity was assessed by determining the concentration of test-compound which inhibited the activity of this enzyme by 50%, (IC50), and comparing this value to that determined for all or some of the following related serine proteases: recombinant tissue plasminogen activator (rt-PA), plasmin, activated protein C, chymotrypsin, factor Xa and trypsin.
(§2) The buffer used for all assays was HBSA (10 mM HEPES, pH 7.5, 150 mM sodium chloride, 0.1% bovine serum albumin).
The assay for IC50 determinations was conducted by combining in appropriate wells of a Corning microtiter plate, 50 microliters of HBSA, 50 microliters of the test compound at a specified concentration (covering a broad concentration range) diluted in HBSA (or HBSA alone for V0 (uninhibited velocity) measurement), and 50 microliters of the enzyme diluted in HBSA. […] The initial velocity of chromogenic substrate hydrolysis was measured by the change in absorbance at 405 nm using a Thermo Max® Kinetic Microplate Reader over a 5 minute period in which less than 5% of the added substrate was utilized. The concentration of added inhibitor which caused a 50% decrease in the initial rate of hydrolysis was defined as the IC50 value.
Enzyme activity was determined using the chromogenic substrate, Pefachrome t-PA (CH3SO2-D-hexahydrotyrosine-glycyl-L-Arginine-p-nitroaniline, obtained from Pentapharm Ltd.). The substrate was reconstituted in deionized water prior to use. Purified human α-thrombin was obtained from Enzyme Research Laboratories, Inc. The buffer used for all assays was HBSA (10 mM HEPES, pH 7.5, 150 mM sodium chloride, 0.1% bovine serum albumin).
The initial velocity of Pefachrome t-PA hydrolysis was measured by the change in absorbance at 405 nm using a Thermo Max® Kinetic Microplate Reader over a 5 minute period in which less than 5% of the added substrate was utilized. The concentration of:added inhibitor which caused a 50% decrease in the initial rate of hydrolysis was defined as the IC50 value.

Assay [2] addresses T2, Factor Xa (Homo sapiens, UniProt P00742).
T2 construct: purchased Enzyme Research Laboratories, Inc. (South Bend, Ind.)
Description: Factor Xa chromogenic enzyme assay. The settings on record: read-out: fXa IC50. How it is done: as §1, §2
(§3) The assay for IC50 determinations was conducted by combining in appropriate wells of a Corning microtiter plate, 50 microliters of HBSA, 50 microliters of the test compound at a specified concentration (covering a broad concentration range) diluted in HBSA (or HBSA alone for V0 (uninhibited velocity) measurement), and 50 microliters of the enzyme diluted in HBSA. Following a 30 minute incubation at ambient temperature, 50 microliters of the substrate at the concentrations specified below were added to the wells, yielding a final total volume of 200 microliters. The initial velocity of chromogenic substrate hydrolysis was measured by the change in absorbance at 405 nm using a Thermo Max® Kinetic Microplate Reader over a 5 minute period in which less than 5% of the added substrate was utilized. The concentration of added inhibitor which caused a 50% decrease in the initial rate of hydrolysis was defined as the IC50 value.
Factor Xa catalytic activity was determined using the chromogenic substrate S-2765 (N-benzyloxycarbonyl-D-arginine-L-glycine-L-arginine-p-nitroaniline), obtained from DiaPharma Group (Franklin, Ohio). All substrates were reconstituted in deionized water prior to use. […] Purified human Factor X was obtained from Enzyme Research Laboratories, Inc. (South Bend, Ind.) and Factor Xa (FXa) was activated and prepared from it as described [Bock, P. E., Craig, P. A., Olson, S. T., and Singh, P. Arch. Biochem. Biophys. 273:375-388 (1989)]. The enzyme was diluted into HBSA prior to assay in which the final concentration was 0.25 nM.

Assay [3] deals with T3, human plasmin (Homo sapiens, UniProt P00747).
T3 construct: Purified human plasmin; purchased Enzyme Research Laboratories, Inc
Description: Plasmin chromogenic enzyme assay. As to the method: as §1, §2, §3
Plasmin catalytic activity was determined using the chromogenic substrate, S-2366 [L-pyroglutamyl-L-prolyl-L-arginine-p-nitroaniline hydrochloride], which was obtained from DiaPharma group. The substrate was made up in deionized water followed by dilution in HBSA prior to the assay in which the final concentration was 300 micromolar (about 2:.5-times Km). Purified human plasmin was obtained from Enzyme Research Laboratories, Inc. The enzyme was diluted into HBSA prior to assay in which the final concentration was 1.0 nM.

The target of assay [4] is T4, bovine pancreatic trypsin (Bos taurus, UniProt P00760).
T4 sequence (P00760 24-246): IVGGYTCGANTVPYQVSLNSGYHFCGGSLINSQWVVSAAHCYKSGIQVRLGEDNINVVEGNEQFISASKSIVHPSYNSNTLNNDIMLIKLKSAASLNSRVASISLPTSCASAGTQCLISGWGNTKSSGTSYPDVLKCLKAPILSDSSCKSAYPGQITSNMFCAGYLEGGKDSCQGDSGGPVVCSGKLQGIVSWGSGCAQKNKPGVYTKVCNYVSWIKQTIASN
Put plainly: Trypsin chromogenic enzyme assay. How it is done: as §1, §2, §3
Trypsin catalytic activity was determined using the chromogenic substrate, S-2222 (benzoyl-L-isoleucine-L-glutamic acid-[gamma-methyl ester]-L-arginine-p-nitroanilide), which was obtained from DiaPharma Group. […] Purified (3×-crystallized; TRL3) bovine pancreatic trypsin was obtained from Worthington Biochemical Corp. The enzyme was reconstituted in deionized water and diluted into HBSA prior to assay in which the final concentration was 0.5 nM.

T3 sequence (P00747 581-810 limits assumed): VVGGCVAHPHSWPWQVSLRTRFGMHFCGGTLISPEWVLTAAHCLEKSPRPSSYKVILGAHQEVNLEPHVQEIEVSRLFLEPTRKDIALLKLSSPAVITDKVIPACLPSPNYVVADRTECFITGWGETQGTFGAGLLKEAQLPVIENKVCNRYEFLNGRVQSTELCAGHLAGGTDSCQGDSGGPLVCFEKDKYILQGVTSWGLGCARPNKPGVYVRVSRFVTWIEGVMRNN
T3 sequence (P00747 97-580 partner limits assumed): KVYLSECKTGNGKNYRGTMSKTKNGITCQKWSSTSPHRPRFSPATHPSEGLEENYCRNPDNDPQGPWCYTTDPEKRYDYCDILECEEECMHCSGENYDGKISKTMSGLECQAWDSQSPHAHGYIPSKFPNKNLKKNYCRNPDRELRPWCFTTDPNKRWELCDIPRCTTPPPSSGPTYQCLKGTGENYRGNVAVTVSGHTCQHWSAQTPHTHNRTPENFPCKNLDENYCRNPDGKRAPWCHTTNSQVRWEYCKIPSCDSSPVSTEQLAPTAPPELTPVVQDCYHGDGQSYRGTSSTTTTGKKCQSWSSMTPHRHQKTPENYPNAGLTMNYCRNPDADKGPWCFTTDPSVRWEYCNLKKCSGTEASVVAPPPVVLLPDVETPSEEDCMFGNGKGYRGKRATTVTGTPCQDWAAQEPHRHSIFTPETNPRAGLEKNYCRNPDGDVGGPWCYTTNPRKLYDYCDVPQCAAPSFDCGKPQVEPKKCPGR
T2 sequence (P00742 235-488 limits assumed): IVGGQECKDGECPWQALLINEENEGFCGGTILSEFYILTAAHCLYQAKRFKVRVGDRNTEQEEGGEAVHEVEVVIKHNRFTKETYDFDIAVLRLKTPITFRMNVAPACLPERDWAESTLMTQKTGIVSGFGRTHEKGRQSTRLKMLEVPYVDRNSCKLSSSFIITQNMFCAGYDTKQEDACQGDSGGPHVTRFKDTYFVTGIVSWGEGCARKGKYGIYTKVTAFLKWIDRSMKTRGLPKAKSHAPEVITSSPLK
T2 sequence (P00742 41-179 partner limits assumed): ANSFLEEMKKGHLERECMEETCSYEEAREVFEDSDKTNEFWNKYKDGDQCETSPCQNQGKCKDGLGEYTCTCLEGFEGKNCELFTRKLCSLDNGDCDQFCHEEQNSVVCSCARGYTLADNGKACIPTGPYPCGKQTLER

As to `N=C(N)N1CCC(CNC(=O)CN2C(=O)[C@@H](NS(=O)(=O)c3ccc4c(c3)CCO4)CCc3ccccc32)CC1` [Example 56, 3-(S)-(2,3-Dihydrobenzo[b]furanyl-5-sulfonyl)amino-1-(1-amidino-4-methylenecarboxamidomethylpiperidyl)-4,5-dihydrobenzo[f]azepin-2-one], the Ki (in general, a measure of affinity in units of concentration, obtained from inhibition or displacement) in assay [1] is not above 100 nM. For the same compound, the 50% inhibitory concentration (IC50) (in general, the concentration needed to halve the response being measured) in assay [1] was 300 to 2500 nM; in assay [2] it was not below 2500 nM; in assay [3], not below 2500 nM; in assay [4] it was not below 2500 nM.
`N/C(=N\O)c1ccc(CNC(=O)CN2C(=O)[C@@H](NS(=O)(=O)c3ccc4c(c3)CCO4)CCc3ccccc32)cc1` [Example 54, 3-(S)-(2,3-Dihydrobenzo[b]furanyl-5-sulfonyl)amino-1-(4-hydroxyamidinylbenzylmethylenecarboxamido)-4,5-dihydrobenzo[f]azepin-2-one] had a Ki in assay [1] of 300 to 2500 nM. The half-maximal inhibitory concentration (IC50) in assay [1], in assay [2], in assay [3] and in assay [4] was not below 2500 nM throughout.
As for `N=C(N)c1ccc(CNC(=O)CN2CCCC[C@H](NS(=O)(=O)c3ccc4c(c3)CCO4)C2=O)cc1` [Example 38], in assay [1], the Ki is not above 100 nM. Also, the IC50 was not above 100 nM in assay [1], not below 2500 nM in assay [2], not below 2500 nM in assay [3] and not above 100 nM in assay [4].
With `N/C(=N\O)c1ccc(CNC(=O)[C@@H]2Cc3cccc4c3N2C(=O)[C@@H](NS(=O)(=O)c2ccc3c(c2)CCO3)CC4)cc1` [Example 60, N-(2,3-Dihydrobenzo[b]furanyl-5-sulfonyl)-Haic-aminomethylphenyl-N-hydroxyamidine], the inhibition constant (Ki) in assay [1] was not below 2500 nM. The IC50 in assay [1], in assay [2], in assay [3] and in assay [4] was not below 2500 nM each time.
In turn, `O=C(CN1CCCC[C@H](NS(=O)(=O)c2ccc3c(c2)CCO3)C1=O)NCc1ccc2[nH]ncc2c1` [Example 49] registered an inhibition constant Ki in assay [1] of 100 to 300 nM. Further, the half-maximal inhibitory concentration (IC50) in assay [1] is 300 to 2500 nM; in assay [2] it was not below 2500 nM; in assay [3], not below 2500 nM; in assay [4] it was not below 2500 nM.
`COc1ccc(OC)c(S(=O)(=O)N[C@H]2CCCCN(CC(=O)NCc3ccc(C(=N)N)cc3)C2=O)c1` [Example 46]: the inhibition constant Ki in assay [1] was not above 100 nM. Moreover, the IC50 in assay [1] was not above 100 nM; in assay [2], not below 2500 nM; in assay [3], not below 2500 nM; in assay [4], not below 2500 nM.
Compound `N[C@H]1CC[C@H](CNC(=O)CN2CCCC[C@H](NS(=O)(=O)c3ccc4c(c3)CCO4)C2=O)CC1` [Example 48] registered a Ki in assay [1] not above 100 nM. Moreover, the IC50 in assay [1] is 300 to 2500 nM; in assay [2], not below 2500 nM; in assay [3], not below 2500 nM; in assay [4], not below 2500 nM.
Regarding `N=C(N)c1ccc(CNC(=O)[C@@H]2Cc3cccc4c3N2C(=O)[C@@H](NS(=O)(=O)c2ccc3c(c2)CCO3)CC4)cc1` [Example 61, N-(2,3-Dihydrobenzo[b]furanyl-5-sulfonyl)-Haic-aminomethylphenylamidine], the inhibition constant (Ki) in assay [1] is not above 100 nM. Besides, the half-inhibitory concentration (IC50) is not above 100 nM in assay [1], 300 to 2500 nM in assay [2], not below 2500 nM in assay [3] and not above 100 nM in assay [4].
